Data: ChEMBL document CHEMBL1201862, “PubChem BioAssay data set” (2004)
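In this assay, cells in 96-well plates receive the compound at five concentrations for 48 hours. Endpoints are linearly interpolated between the surrounding concentrations. GI50: concentration for 50% inhibition of growth.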 Calls of active or inactive are those of the source. Rule as the data show it: active = GI50 up to about 1.1 µM and inactive = higher.

Legend:
Experiment in all cases: NCI tumour cell line growth inhibition, 48 h
[1] = tested on: SK-OV-3
[2] = tested on: EKVX
[3] = tested on: NCI/ADR-RES
[4] = tested on: Malme-3M
[5] = tested on: MDA-N
[6] = tested on: KM12
[7] = tested on: HOP-62
[8] = tested on: HCT-15
[9] = tested on: SW-620
[10] = tested on: SK-MEL-5
[11] = tested on: RXF 393
[12] = tested on: HCT-116
[13] = tested on: HOP-92
[14] = tested on: OVCAR-5
[15] = tested on: OVCAR-4
[16] = tested on: NCI-H460
[17] = tested on: COLO 205
[18] = tested on: NCI-H23
[19] = tested on: DU-145
[20] = tested on: NCI-H522

Row | Compound | GI50 [1] | GI50 [2] | GI50 [3] | GI50 [4] | GI50 [5] | GI50 [6] | GI50 [7] | GI50 [8] [µM] | GI50 [9] | GI50 [10] | GI50 [11] | GI50 [12] | GI50 [13] | GI50 [14] | GI50 [15] | GI50 [16] | GI50 [17] | GI50 [18] | GI50 [19] | GI50 [20]
1 | CCCCC(=C=C1CCCCC1O)C1CCCN1C(=O)OC(C)(C)C (stereo not given) | 16.5 µM (inactive) | 14.9 µM (inactive) | 14.3 µM (inactive) | 17.3 µM (inactive) | 16.4 µM (inactive) | 16.6 µM (inactive) | 17 µM (inactive) | 16.4 | 18.3 µM (inactive) | 16.6 µM (inactive) | 13 µM (inactive) | 14.3 µM (inactive) | 12.8 µM (inactive) | 16 µM (inactive) | 13.9 µM (inactive) | 15.5 µM (inactive) | 17.3 µM (inactive) | 16 µM (inactive) | 17.5 µM (inactive) | 17.1 µM (inactive)
2 | OCC(O)C(O)C(O)C(O)c1nc2cc(Cl)ccc2[nH]1 (stereo not given) | 56.4 µM (inactive) | > 100 µM (inactive) | > 100 µM (inactive) | > 100 µM (inactive) | > 100 µM (inactive) | > 100 µM (inactive) | 90.4 µM (inactive) | > 100 | > 100 µM (inactive) | > 100 µM (inactive) | > 100 µM (inactive) | > 100 µM (inactive) | > 100 µM (inactive) | > 100 µM (inactive) | > 100 µM (inactive) | > 100 µM (inactive) | > 100 µM (inactive) | > 100 µM (inactive) | > 100 µM (inactive) | > 100 µM (inactive)
3 | Cc1cc2oc(=O)c(Cl)c(Cl)c2c(C)c1Cl | 14.4 µM (inactive) | 14.8 µM (inactive) | 5.5 µM (inactive) | 10.8 µM (inactive) | 2.92 µM (inactive) | 15.1 µM (inactive) | 24.6 µM (inactive) | 3.5 | 1.37 µM (inactive) | 6.93 µM (inactive) | 2.84 µM (inactive) | 3.78 µM (inactive) | 1.58 µM (inactive) | 12.1 µM (inactive) | 4.28 µM (inactive) | 16.7 µM (inactive) | 2.56 µM (inactive) | 6.28 µM (inactive) | 14.6 µM (inactive) | 14.3 µM (inactive)
4 | NS(=O)(=O)c1ccc(Nc2c3ccccc3nc3c(C(=O)NC(CO)(CO)CO)cccc23)cc1 | 0.188 µM (active) | 0.314 µM (active) | 0.769 µM (active) | 0.135 µM (active) | 0.272 µM (active) | 0.158 µM (active) | 0.178 µM (active) | 0.282 | 0.163 µM (active) | 0.107 µM (active) | 0.185 µM (active) | 0.144 µM (active) | 0.153 µM (active) | 0.233 µM (active) | 0.0598 µM (active) | 0.0668 µM (active) | 0.0515 µM (active) | 0.15 µM (active) | 0.194 µM (active) | 0.15 µM (active)
5 | N#C/C=C1\C=CC(O)C(O)C1OC1OC(CO)C(O)C(O)C1O (stereo not given) | > 100 µM (inactive) | > 100 µM (inactive) | > 100 µM (inactive) | > 100 µM (inactive) | > 100 µM (inactive) | > 100 µM (inactive) | > 100 µM (inactive) | > 100 | > 100 µM (inactive) | > 100 µM (inactive) | > 100 µM (inactive) | > 100 µM (inactive) | > 100 µM (inactive) | > 100 µM (inactive) | > 100 µM (inactive) | > 100 µM (inactive) | > 100 µM (inactive) | > 100 µM (inactive) | > 100 µM (inactive) | > 100 µM (inactive)
6 | CC(C)CNc1nc(N)nc(O)c1NC=O | > 100 µM (inactive) | > 100 µM (inactive) | > 100 µM (inactive) | > 100 µM (inactive) | > 100 µM (inactive) | > 100 µM (inactive) | > 100 µM (inactive) | > 100 | > 100 µM (inactive) | > 100 µM (inactive) | > 100 µM (inactive) | > 100 µM (inactive) | > 100 µM (inactive) | > 100 µM (inactive) | > 100 µM (inactive) | > 100 µM (inactive) | > 100 µM (inactive) | > 100 µM (inactive) | > 100 µM (inactive) | > 100 µM (inactive)
